Assay results as given in ChEMBL document CHEMBL1150568, “Briaexcavatolides K-N, new briarane diterpenes from the gorgonian Briareum excavatum” (2001).
≈ marks a conversion by molar mass, not a printed value. Calls of active or inactive are those of the source. The calls are words filed in the database; no cut-off is given here.

Columns and labels:
P388 = experiment: Cytotoxicity against mouse P388 cells by tetrazolium-based colorimetric assay; assay type: functional; settings: for EC50: read-out: ED50 (the source's name)
HT-29 = experiment: Cytotoxicity against human HT-29 cells by tetrazolium-based colorimetric assay; assay type: functional
A549 = experiment: Cytotoxicity against human A549 cells by tetrazolium-based colorimetric assay; assay type: functional, cell-based

Structure (SMILES): CC(=O)O[C@H]1CC/C(CO)=C\[C@@H]2OC(=O)[C@@]3(C)O[C@]23[C@H](O)[C@H]2[C@@H](C)[C@H](OC(C)=O)C=C[C@@]21C (relative stereo)
- EC50 (P388): 0.4 µg/mL (≈ 0.861 µM)
- EC50 (HT-29; read-out: ED50 (the source's name)): 1.1 µg/mL (≈ 2.37 µM)

Structure (SMILES): CCCC(=O)O[C@H]1C/C(C)=C\[C@@H]2OC(=O)[C@](C)(O)[C@]2(O)[C@H](OC(C)=O)[C@H]2[C@@H](C)[C@@H](O)C[C@H](OC(C)=O)[C@]2(C)[C@H]1OC(C)=O [BRIAEXCAVATOLIDE L]
- EC50 (P388): 0.5 µg/mL (≈ 0.816 µM)

Structure (SMILES): CC(=O)O[C@H]1C/C(C)=C\[C@@H]2OC(=O)[C@](C)(O)[C@]2(O)[C@H](OC(C)=O)[C@H]2[C@@H](C)[C@@H](O)C[C@H](OC(C)=O)[C@]2(C)[C@H]1OC(C)=O
- Activity (P388): inactive
- Activity (A549): inactive
- Activity (HT-29): inactive

Structure (SMILES): CC(=O)O[C@@H]1[C@H](C)[C@@H]2[C@@H](OC(C)=O)[C@@]3(O)[C@H](/C=C(CCl)\C=C/[C@H](O)[C@@]2(C)[C@H]2O[C@@H]12)OC(=O)[C@@H]3C
- Activity (P388): inactive
- Activity (A549): inactive
- Activity (HT-29): inactive

Structure (SMILES): CC(=O)O[C@@H]1[C@H](C)[C@@H]2[C@@H](OC(C)=O)[C@@]3(O)[C@H](/C=C(CO)\C=C/[C@H](O)[C@@]2(C)[C@H]2O[C@@H]12)OC(=O)[C@@H]3C
- Activity (P388): inactive
- Activity (A549): inactive
- Activity (HT-29): inactive
